Experimental data: patent publication US8916551B2, “Heterocyclic compound and use thereof” (Takeda Pharmaceutical Company Limited, priority 2010, dated 2014)

biological target: T1, AMPA receptor (human GluR1 flip/stargazin expressed in CHO-K1 cells) (Homo sapiens, UniProt P42261); experiment: AMPA receptor function enhancing activity using calcium influx as index; type: cell-based; details: test compound 30 μM with 3 mM glutamic acid, change in fluorescence level in 3 min, 100% = 3 mM glutamic acid + 300 μM cyclothiazide, 0% = 3 mM glutamic acid only
T1 construct: expressed in transfected cells; host or cells: CHO-K1
T1 sequence (P42261 19-906 isoform P42261-2 limits assumed): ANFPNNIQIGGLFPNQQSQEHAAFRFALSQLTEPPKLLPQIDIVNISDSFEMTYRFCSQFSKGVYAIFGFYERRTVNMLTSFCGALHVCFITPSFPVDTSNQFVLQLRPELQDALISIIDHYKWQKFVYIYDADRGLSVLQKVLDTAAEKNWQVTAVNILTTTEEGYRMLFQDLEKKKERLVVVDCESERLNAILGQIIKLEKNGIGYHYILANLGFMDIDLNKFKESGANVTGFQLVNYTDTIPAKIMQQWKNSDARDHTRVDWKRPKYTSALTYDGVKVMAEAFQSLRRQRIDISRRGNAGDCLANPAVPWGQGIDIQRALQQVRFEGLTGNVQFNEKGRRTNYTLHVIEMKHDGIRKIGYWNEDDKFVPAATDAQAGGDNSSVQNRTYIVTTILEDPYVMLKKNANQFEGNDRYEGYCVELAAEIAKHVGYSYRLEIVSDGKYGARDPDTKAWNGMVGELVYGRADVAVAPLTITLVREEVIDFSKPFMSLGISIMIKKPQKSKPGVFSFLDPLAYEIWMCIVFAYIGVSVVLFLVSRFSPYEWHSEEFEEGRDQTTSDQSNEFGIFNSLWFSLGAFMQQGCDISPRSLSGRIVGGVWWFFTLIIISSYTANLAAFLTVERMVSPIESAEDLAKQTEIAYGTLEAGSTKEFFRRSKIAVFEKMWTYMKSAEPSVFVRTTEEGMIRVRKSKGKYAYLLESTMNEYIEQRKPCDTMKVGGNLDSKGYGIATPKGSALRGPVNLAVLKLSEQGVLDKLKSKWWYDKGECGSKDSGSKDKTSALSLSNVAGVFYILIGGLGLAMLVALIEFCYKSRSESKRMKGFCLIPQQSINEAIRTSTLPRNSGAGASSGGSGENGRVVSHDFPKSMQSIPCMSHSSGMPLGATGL
T1 sequence (Q9Y698 whole entry partner): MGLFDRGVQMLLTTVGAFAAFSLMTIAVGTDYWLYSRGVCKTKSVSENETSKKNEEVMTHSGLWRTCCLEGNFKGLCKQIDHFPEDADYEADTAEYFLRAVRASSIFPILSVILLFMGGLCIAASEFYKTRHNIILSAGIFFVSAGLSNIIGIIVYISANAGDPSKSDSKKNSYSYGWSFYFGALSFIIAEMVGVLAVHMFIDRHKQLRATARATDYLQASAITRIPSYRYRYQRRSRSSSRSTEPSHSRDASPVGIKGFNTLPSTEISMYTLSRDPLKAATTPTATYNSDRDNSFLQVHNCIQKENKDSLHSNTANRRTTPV
How it was run: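 CHO-K1 clone stably co-expressing human GluR1 flip and stargazin, loaded with Calcium 4 dye plus probenecid. Compound at 30 μM was added with glutamate (3 mM final) and fluorescence change followed over 3 min. Activity is expressed as % of the 3 mM glutamate plus 300 μM cyclothiazide response, with glutamate alone as 0%.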

Structure (SMILES)	activity (%)
O=S1(=O)CCN2C=CN=C(c3ccc(Oc4ccccc4)cc3)C2=N1 [Example 210, 9-(4-phenoxyphenyl)-3,4-dihydropyrazino[2,1-c][1,2,4]thiadiazine 2,2-dioxide]	82
O=S1(=O)CCN2CCNC(c3ccc(Oc4ccccc4)cc3)C2=N1 (stereo not drawn) [Example 211, 9-(4-phenoxyphenyl)-3,4,6,7,8,9-hexahydropyrazino[2,1-c][1,2,4]thiadiazine 2,2-dioxide]	71
Cc1cc(Cl)ccc1Oc1ccc([C@@H]2CCCN3CCS(=O)(=O)N=C23)cc1 [Example 215, (9S)-9-[4-(4-chloro-2-methylphenoxy)phenyl]-3,4,6,7,8,9-hexahydropyrido[2,1-c][1,2,4]thiadiazine 2,2-dioxide]	67
O=S1(=O)CCN2CCC[C@@H](c3ccc(-c4ccccc4Cl)cc3)C2=N1 [Example 220, (9S)-9-(2′-chlorobiphenyl-4-yl)-3,4,6,7,8,9-hexahydropyrido[2,1-c][1,2,4]thiadiazine 2,2-dioxide]	93
O=S1(=O)CCN2CCCC(c3ccc(-c4ccccc4Cl)cc3)C2=N1 (stereo not drawn) [Example 221, 9-(2′-chlorobiphenyl-4-yl)-3,4,6,7,8,9-hexahydropyrido[2,1-c][1,2,4]thiadiazine 2,2-dioxide]	96
O=S1(=O)CCN2CCC[C@@H](c3ccc(-c4ccc(F)c(Cl)c4)cc3)C2=N1 [Example 226, (9S)-9-(3′-chloro-4′-fluorobiphenyl-4-yl)-3,4,6,7,8,9-hexahydropyrido[2,1-c][1,2,4]thiadiazine 2,2-dioxide]	79
O=S1(=O)CCN2CCC[C@@H](c3ccc(Oc4ccc(Br)cc4)cc3)C2=N1 [Example 228, (9S)-9-[4-(4-bromophenoxy)phenyl]-3,4,6,7,8,9-hexahydropyrido[2,1-c][1,2,4]thiadiazine 2,2-dioxide]	78
CC(F)(F)c1ccc(C2CCCN3CCS(=O)(=O)N=C23)cc1 (stereo not drawn) [Example 230, 9-[4-(1,1-difluoroethyl)phenyl]-3,4,6,7,8,9-hexahydropyrido[2,1-c][1,2,4]thiadiazine 2,2-dioxide]	59
CC(F)(F)c1ccc(C2CCCN3CCS(=O)(=O)N=C23)cc1 (stereo not drawn) [Example 231, 9-[4-(1,1-difluoroethyl)phenyl]-3,4,6,7,8,9-hexahydropyrido[2,1-c][1,2,4]thiadiazine 2,2-dioxide]	78
CC(F)(F)c1ccc(Oc2ccc(C3CCCN4CCS(=O)(=O)N=C34)cc2)cc1 (stereo not drawn) [Example 235, 9-{4-[4-(1,1-difluoroethyl)phenoxy]phenyl}-3,4,6,7,8,9-hexahydropyrido[2,1-c][1,2,4]thiadiazine 2,2-dioxide]	84
O=S1(=O)CCN2C=CC=C(Oc3ccc4c(c3)CCCC4)C2=N1 [Example 237, 9-(5,6,7,8-tetrahydronaphthalen-2-yloxy)-3,4-dihydropyrido[2,1-c][1,2,4]thiadiazine 2,2-dioxide]	66
O=S1(=O)CCN2CCCC(Oc3ccc4c(c3)CCCC4)C2=N1 (stereo not drawn) [Example 238, 9-(5,6,7,8-tetrahydronaphthalen-2-yloxy)-3,4,6,7,8,9-hexahydropyrido[2,1-c][1,2,4]thiadiazine 2,2-dioxide]	87
O=S1(=O)CCN2C=CC=C(c3ccc(-n4cccn4)cc3)C2=N1 [Example 239, 9-[4-(1H-pyrazol-1-yl)phenyl]-3,4-dihydropyrido[2,1-c][1,2,4]thiadiazine 2,2-dioxide]	88
O=C1CCC(Oc2ccc(C3=CC=CN4CCS(=O)(=O)N=C34)cc2)CC1 [Example 244, 4-[4-(2,2-dioxido-3,4-dihydropyrido[2,1-c][1,2,4]thiadiazin-9-yl)phenoxy]cyclohexanone]	76
Cc1cccc(Oc2ccc(C3=CC=CN4CCS(=O)(=O)N=C34)cc2)n1 [Example 246, 9-{4-[(6-methylpyridin-2-yl)oxy]phenyl}-3,4-dihydropyrido[2,1-c][1,2,4]thiadiazine 2,2-dioxide]	73
O=S1(=O)CCN2C=C(Cl)C=C(c3ccc(OCC4CCCO4)cc3)C2=N1 (stereo not drawn) [Example 251, 7-chloro-9-[4-(tetrahydrofuran-2-ylmethoxy)phenyl]-3,4-dihydropyrido[2,1-c][1,2,4]thiadiazine 2,2-dioxide]	81

Structure (SMILES)	activity (%)
O=S1(=O)CCN2C=C(Cl)C=C(c3ccc(OCC4CCOCC4)cc3)C2=N1 [Example 253, 7-chloro-9-[4-(tetrahydro-2H-pyran-4-ylmethoxy)phenyl]-3,4-dihydropyrido[2,1-c][1,2,4]thiadiazine 2,2-dioxide]	80
O=S1(=O)CCN2C=CC=C(c3ccc(Oc4ccc(C(F)(F)F)nc4)cc3)C2=N1 [Example 254, 9-(4-{[6-(trifluoromethyl)pyridin-3-yl]oxy}phenyl)-3,4-dihydropyrido[2,1-c][1,2,4]thiadiazine 2,2-dioxide]	81
O=S1(=O)CCN2C=CC=C(c3ccc(Oc4cnccc4C(F)(F)F)cc3)C2=N1 [Example 255, 9-(4-{[4-(trifluoromethyl)pyridin-3-yl]oxy}phenyl)-3,4-dihydropyrido[2,1-c][1,2,4]thiadiazine 2,2-dioxide]	84
O=S1(=O)CCN2C=C(Cl)C=C(c3ccc(Oc4ccc(C(F)(F)F)nc4)cc3)C2=N1 [Example 256, 7-chloro-9-(4-{[6-(trifluoromethyl)pyridin-3-yl]oxy}phenyl)-3,4-dihydropyrido[2,1-c][1,2,4]thiadiazine 2,2-dioxide]	86
O=S1(=O)CCN2C=CC=C(c3ccc(Oc4ccnc(C(F)(F)F)c4)cc3)C2=N1 [Example 257, 9-(4-{[2-(trifluoromethyl)pyridin-4-yl]oxy}phenyl)-3,4-dihydropyrido[2,1-c][1,2,4]thiadiazine 2,2-dioxide]	84
O=S1(=O)CCN2C=CC=C(c3ccc(Oc4ccccc4)cn3)C2=N1 [Example 258, 9-(5-phenoxypyridin-2-yl)-3,4-dihydropyrido[2,1-c][1,2,4]thiadiazine 2,2-dioxide]	79
O=S1(=O)CCN2C=CC=C(c3ccc(Oc4cncc(C(F)(F)F)c4)cc3)C2=N1 [Example 259, 9-(4-{[5-(trifluoromethyl)pyridin-3-yl]oxy}phenyl)-3,4-dihydropyrido[2,1-c][1,2,4]thiadiazine 2,2-dioxide]	90
O=S1(=O)CCN2C=C(Cl)C=C(c3ccc(Oc4cncc(C(F)(F)F)c4)cc3)C2=N1 [Example 260, 7-chloro-9-(4-{[5-(trifluoromethyl)pyridin-3-yl]oxy}phenyl)-3,4-dihydropyrido[2,1-c][1,2,4]thiadiazine 2,2-dioxide]	91
O=S1(=O)CCN2CCCC(c3ccc(OC4CCCCC4)cc3)C2=N1 (stereo not drawn) [Example 261, 9-[4-(cyclohexyloxy)phenyl]-3,4,6,7,8,9-hexahydropyrido[2,1-c][1,2,4]thiadiazine 2,2-dioxide]	72
O=S1(=O)CCN2C=CC=C(c3ccc(OCC(F)(F)F)cc3)C2=N1 [Example 264, 9-[4-(2,2,2-trifluoroethoxy)phenyl]-3,4-dihydropyrido[2,1-c][1,2,4]thiadiazine 2,2-dioxide]	80
O=S1(=O)CCN2C=CC=C(c3ccc(Oc4ccccc4C(F)(F)F)cc3)C2=N1 [Example 266, 9-{4-[2-(trifluoromethyl)phenoxy]phenyl}-3,4-dihydropyrido[2,1-c][1,2,4]thiadiazine 2,2-dioxide]	84
O=C1CCCCC1Oc1ccc(C2=CC=CN3CCS(=O)(=O)N=C23)cc1 (stereo not drawn) [Example 274, 2-[4-(2,2-dioxido-3,4-dihydropyrido[2,1-c][1,2,4]thiadiazin-9-yl)phenoxy]cyclohexanone]	85
O=S1(=O)CCN2C=CC=C(c3ccc(-c4ccccc4)nc3)C2=N1 [Example 282, 9-(6-phenylpyridin-3-yl)-3,4-dihydropyrido[2,1-c][1,2,4]thiadiazine 2,2-dioxide]	84
CC1(C)Cc2cc(C3=CC=CN4CCS(=O)(=O)N=C34)ccc2C1=O [Example 287, 5-(2,2-dioxido-3,4-dihydropyrido[2,1-c][1,2,4]thiadiazin-9-yl)-2,2-dimethyl-2,3-dihydro-1H-inden-1-one]	73
O=S1(=O)CCN2CCCC(c3ccc(-n4cccn4)cc3)C2=N1 (stereo not drawn) [Example 290, 9-[4-(1H-pyrazol-1-yl)phenyl]-3,4,6,7,8,9-hexahydropyrido[2,1-c][1,2,4]thiadiazine 2,2-dioxide]	79
CCCCn1ccc2cc(C3=CC=CN4CCS(=O)(=O)N=C34)ccc21 [Example 292, 9-(1-butyl-1H-indol-5-yl)-3,4-dihydropyrido[2,1-c][1,2,4]thiadiazine 2,2-dioxide]	90

same assay, conditions: test compound 30 μM with glutamic acid final 3 mM, change in fluorescence in 3 min, 100% = 3 mM glutamic acid + 300 μM cyclothiazide, 0% = 3 mM glutamic acid only

Structure (SMILES)	activity (%)
CC(C)Cn1ccc2cc(C3=CC=CN4CCS(=O)(=O)N=C34)ccc21 [Example 293, 9-[1-(2-methylpropyl)-1H-indol-5-yl]-3,4-dihydropyrido[2,1-c][1,2,4]thiadiazine 2,2-dioxide]	80
CCCCn1ccc2cc(C3CCCN4CCS(=O)(=O)N=C34)ccc21 (stereo not drawn) [Example 294, 9-(1-butyl-1H-indol-5-yl)-3,4,6,7,8,9-hexahydropyrido[2,1-c][1,2,4]thiadiazine 2,2-dioxide]	82
O=S1(=O)CCN2CCCC(c3ccc4c(ccn4CCc4ccc(F)cc4)c3)C2=N1 (stereo not drawn) [Example 295, 9-{1-[2-(4-fluorophenyl)ethyl]-1H-indol-5-yl}-3,4,6,7,8,9-hexahydropyrido[2,1-c][1,2,4]thiadiazine 2,2-dioxide]	64
O=C(c1ccccc1)c1ccc(C2=CC=CN3CCS(=O)(=O)N=C23)cc1 [Example 298, [4-(2,2-dioxido-3,4-dihydropyrido[2,1-c][1,2,4]thiadiazin-9-yl)phenyl](phenyl)methanone]	99
